Source: paper PMC11225630 (Journal of Oral Microbiology, 2024)
Each block holds one compound with its values, some of them ahead of it. Where a SMILES comes first, the peptide text is derived from it.

How the values were obtained:
Experiment in all cases: AMC release by intact cells, fluorescence
Assay type in all cases: cell-based
Conditions in all cases: 20 uM; 50 mM phosphate, 5 mM EDTA, 100 mM NaCl, 37 C, 3 h
[1] = biological target: T1, DPP11 (Porphyromonas gingivalis, UniProt B2RID1)
T1 sequence (B2RID1 22-720): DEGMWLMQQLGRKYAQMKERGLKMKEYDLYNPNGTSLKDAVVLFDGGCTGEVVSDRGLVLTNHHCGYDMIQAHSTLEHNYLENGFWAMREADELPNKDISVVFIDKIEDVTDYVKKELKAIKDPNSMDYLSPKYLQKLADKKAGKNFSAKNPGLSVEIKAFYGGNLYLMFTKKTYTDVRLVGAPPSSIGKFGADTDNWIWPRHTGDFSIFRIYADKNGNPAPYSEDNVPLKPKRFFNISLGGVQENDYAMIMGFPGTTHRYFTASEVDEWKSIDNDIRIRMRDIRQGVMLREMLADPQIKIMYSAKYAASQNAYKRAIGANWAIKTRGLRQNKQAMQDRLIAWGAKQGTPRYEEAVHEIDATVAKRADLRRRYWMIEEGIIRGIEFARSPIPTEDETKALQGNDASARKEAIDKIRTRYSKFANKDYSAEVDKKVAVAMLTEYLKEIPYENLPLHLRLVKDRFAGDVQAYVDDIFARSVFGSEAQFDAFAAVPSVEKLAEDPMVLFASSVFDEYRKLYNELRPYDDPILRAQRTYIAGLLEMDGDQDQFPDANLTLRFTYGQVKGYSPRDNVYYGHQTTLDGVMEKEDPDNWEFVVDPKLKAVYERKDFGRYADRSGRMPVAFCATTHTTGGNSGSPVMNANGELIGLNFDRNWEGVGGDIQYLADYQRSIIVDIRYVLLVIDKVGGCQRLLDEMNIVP

[2] = biological target: T2, DPP5 (Porphyromonas gingivalis, UniProt B2RIT0)
T2 sequence (B2RIT0 25-684): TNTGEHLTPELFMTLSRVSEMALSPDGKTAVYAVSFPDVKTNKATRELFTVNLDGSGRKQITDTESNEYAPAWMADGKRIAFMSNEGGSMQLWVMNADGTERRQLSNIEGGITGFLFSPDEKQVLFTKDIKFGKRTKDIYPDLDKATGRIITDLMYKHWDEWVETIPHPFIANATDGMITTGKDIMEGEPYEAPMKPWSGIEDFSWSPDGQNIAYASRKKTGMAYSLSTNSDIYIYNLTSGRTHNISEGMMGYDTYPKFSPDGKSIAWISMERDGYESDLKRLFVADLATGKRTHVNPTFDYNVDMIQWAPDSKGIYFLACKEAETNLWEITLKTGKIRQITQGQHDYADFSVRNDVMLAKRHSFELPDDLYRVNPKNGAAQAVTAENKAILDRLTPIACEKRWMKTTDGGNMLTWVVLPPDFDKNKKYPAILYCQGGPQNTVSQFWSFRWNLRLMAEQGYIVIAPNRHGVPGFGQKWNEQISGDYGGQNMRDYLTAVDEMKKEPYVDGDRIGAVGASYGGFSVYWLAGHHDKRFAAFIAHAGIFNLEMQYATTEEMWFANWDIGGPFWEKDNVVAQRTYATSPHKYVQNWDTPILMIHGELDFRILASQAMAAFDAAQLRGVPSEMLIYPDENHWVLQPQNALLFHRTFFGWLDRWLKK

[3] = biological target: DPP4 (Porphyromonas gingivalis, UniProt B2RKU3)

AMC release by intact cells, fluorescence [1]: Leu-Asp-MCA (substrate of DPP11)
SMILES: Cc1cc(=O)oc2cc(NC(=O)[C@H](CC(=O)O)NC(=O)[C@@H](N)CC(C)C)ccc12 [Leu-Asp-MCA] (HELM PEPTIDE1{L.D.[Cc1cc(=O)oc2cc(N[*:1])ccc12]}$$$$V2.0)

AMC release by intact cells, fluorescence [2]: Lys-Ala-MCA (substrate of DPP5)
SMILES: Cc1cc(=O)oc2cc(NC(=O)[C@H](C)NC(=O)[C@@H](N)CCCCN)ccc12 [Lys-Ala-MCA] (HELM PEPTIDE1{K.A.[Cc1cc(=O)oc2cc(N[*:1])ccc12]}$$$$V2.0)

AMC release by intact cells, fluorescence [3]: Gly-Pro-MCA (substrate of DPP4)
SMILES: Cc1cc(=O)oc2cc(NC(=O)[C@@H]3CCCN3C(=O)CN)ccc12 [Gly-Pro-MCA] (HELM PEPTIDE1{G.P.[Cc1cc(=O)oc2cc(N[*:1])ccc12]}$$$$V2.0)
